Experimental findings from US9518046B2 (Calitor Sciences, LLC, priority 2015, dated 2016) are described below.

The CL/F is the apparent clearance, not corrected for the fraction that reaches the circulation.

The data set can be described thus: Pharmacokinetics after intravenous and oral administration in rats. The class given is in vivo. The settings on record: Rats; iv dosing; dose 1 mg/kg (0.5 for Ex. 1, 10, 11, 35; 0.48 for Ex. 24). The protocol:
The LC/MS/MS system used in the analysis consists of an Agilent 1200 Series vacuum degasser, binary pump, well-plate autosampler, thermostatted column compartment, the Agilent G6430 Triple Quadrupole Mass Spectrometer with an electrosprayionization (ESI) source. Quantitative analysis was carried out using MRM mode. The parameters for MRM transitions are in the Table A.
An Agilent XDB-C18, 2.1×30 mm, 3.5 M column was used for the analysis. 5 L of the samples were injected. Analysis condition: The mobile phase was 0.1% formic acid in water (A) and 0.1% formic acid in methanol (B). The flow rate was 0.4 mL/min. And the gradient of Mobile phase was in the Table B.
Alternatively, an Agilent 6330 series LC/MS/MS spectrometer equipped with G1312A binary pumps, a G1367A autosampler and a G1314C UV detector were used in the analysis. An ESI source was used on the LC/MS/MS spectrometer. The analysis was done in positive ion mode as appropriate and the MRM transition for each analyte was optimized using standard solution. A Capcell MP-C18 100×4.6 mm I.D., […] column (Phenomenex, Torrance, Calif., USA) was used during the analysis. The mobile phase was 5 mM ammonia acetate, 0.1% MeOH in water (A): 5 mM ammonia acetate, 0.1% MeOH in acetonitrile (B) (70:30, v/v). The flow rate was 0.6 mL/min. Column was maintained at ambient temperature. 20 μL of the samples were injected.
The compounds disclosed herein are assessed in pharmacokinetic studies in mice, rats, dogs or monkeys. The compounds are administered as a water solution, 2% HPMC+1% TWEEN®80 in water solution, 5% DMSO+5% solutol in saline, 4% MC suspension or capsule. For the intravenous administration, the animals are generally given at 1 or 2 mg/kg dose. For the oral (p.o.) dosing, mice and rats are generally given 5 or 10 mg/kg dose, and dogs and monkeys are generally given 10 mg/kg dose. The blood samples (0.3 mL) are drawn at 0.25, 0.5, 1.0, 2.0, 3.0, 4.0, 6.0, 8.0, 12 and 24 h time points or 0.083, 0.25, 0.5, 1.0, 2.0, 4.0, 6.0, 8.0 and 24 h time points and centrifuged at 3,000 or 4000 rpm for 2 to 10 min. The plasma solutions are collected, stored at −20° C. or −70° C. until analyzed by LC/MS/MS as described above.
Turning to `CC[C@H](Nc1ncnc(N)c1-c1noc(C)n1)c1nc2cccc(C)c2c(=O)n1C1CC1`, the CL/F came out at 40.3 mL/min/kg.

In the case of `CC[C@H](Nc1ncnc(N)c1-c1noc(C)n1)c1nc2ccccc2c(=O)n1-c1ccccc1F`, the CL/F was determined as 118 mL/min/kg.

As to `CC[C@H](Nc1ncnc(N)c1-c1noc(C)n1)c1nc2cccc(C)c2c(=O)n1-c1ccccc1C` (single isomer, unassigned) [Ex. 15], the CL/F was determined as 74.2 mL/min/kg.

The compound `CC[C@H](Nc1ncnc(N)c1-c1nc(C)no1)c1nc2ccccc2c(=O)n1-c1ccccc1F` (single isomer, unassigned) [Ex. 22] gave a CL/F of 159 mL/min/kg.

`CC[C@H](Nc1ncnc(N)c1-c1nnc(C)o1)c1nc2ccccc2c(=O)n1-c1ccccc1F` (single isomer, unassigned) [Ex. 24] displayed a CL/F of 70.5 mL/min/kg.

`CC[C@H](Nc1ncnc(N)c1-c1nc(C)no1)c1nc2cccc(C)c2c(=O)n1-c1ccccc1C` (single isomer, unassigned) [Ex. 27] showed a CL/F of 61.7 mL/min/kg.

The compound `CC[C@H](Nc1ncnc(N)c1-c1ncc(C)o1)c1nc2cccc(C)c2c(=O)n1-c1ccccc1C` (single isomer, unassigned) [Ex. 28] gave an apparent clearance CL/F of 61.2 mL/min/kg.

`CC[C@H](Nc1ncnc(N)c1-c1nc(C)co1)c1nc2cccc(C)c2c(=O)n1-c1ccccc1C` (single isomer, unassigned) [Ex. 29] registered a CL/F of 130 mL/min/kg.

Regarding `CC[C@H](Nc1ncnc(N)c1-c1ncn(C)n1)c1nc2cccc(C)c2c(=O)n1-c1ccccc1C` (single isomer, unassigned) [Ex. 30], the CL/F amounted to 70.5 mL/min/kg.

`CC[C@H](Nc1ncnc(N)c1-c1nnc(C)o1)c1nc2cccc(C)c2c(=O)n1-c1ccccc1C` (single isomer, unassigned) [Ex. 31] displayed a CL/F of 64.8 mL/min/kg.

In turn, `CC[C@H](Nc1ncnc(N)c1-c1ncn(C)n1)c1nc2cccc(Cl)c2c(=O)n1-c1ccccc1F` (single isomer, unassigned) [Ex. 45] had an apparent clearance (CL/F) of 61.8 mL/min/kg. This CL/F and that of the compound before are within 1.5-fold of each other.

On to `CC[C@H](Nc1ncnc(N)c1-c1nnc(C)o1)c1nc2cccc(Cl)c2c(=O)n1-c1ccccc1` [Ex. 1, (S)-2-(1-((6-amino-5-(5-methyl-1,3,4-oxadiazol-2-yl)pyrimidin-4-yl)amino)-propyl)-5-chloro-3-phenylquinazolin-4(3H)-one], for which the CL/F was 47.3 mL/min/kg. This CL/F and that of the compound before are within 1.5-fold of each other.

In the case of `CC[C@H](Nc1ncnc(N)c1-c1nnc(C)o1)c1nc2cccc(Cl)c2c(=O)n1C1CC1` [Ex. 2, (S)-2-(1-((6-amino-5-(5-methyl-1,3,4-oxadiazol-2-yl)pyrimidin-4-yl)amino)-propyl)-5-chloro-3-cyclopropylquinazolin-4(3H)-one], the CL/F is 41.2 mL/min/kg.

Regarding `CC[C@H](Nc1ncnc(N)c1-c1nc(C)no1)c1nc2cccc(Cl)c2c(=O)n1-c1ccccc1` [Ex. 3, (S)-2-(1-((6-amino-5-(3-methyl-1,2,4-oxadiazol-5-yl)pyrimidin-4-yl)amino)-propyl) 5-chloro-3-phenylquinazolin-4(3H)-one], the CL/F worked out at 70.8 mL/min/kg.

In turn, `CC[C@H](Nc1ncnc(N)c1C1=N[C@@H](C)CO1)c1nc2cccc(Cl)c2c(=O)n1C1CC1` [Ex. 5, 2-((S)-1-((6-amino-5-((S)-4-methyl-4,5-dihydrooxazol-2-yl)pyrimidin-4-yl)amino)propyl)-5-chloro-3-cyclopropylquinazolin-4(3H)-one] gave a CL/F of 59.5 mL/min/kg.

The compound `CC[C@H](Nc1ncnc(N)c1C1=N[C@@H](C)CO1)c1nc2cccc(Cl)c2c(=O)n1-c1ccccc1` [Ex. 6] showed a CL/F of 110 mL/min/kg.

In turn, `CC[C@H](Nc1ncnc(N)c1-c1ncc(C)o1)c1nc2cccc(Cl)c2c(=O)n1C1CC1` [Ex. 7, (S)-2-(1-((6-amino-5-(5-methyloxazol-2-yl)pyrimidin-4-yl)amino)propyl)-5-chloro-3-cyclopropylquinazolin-4(3H)-one] returned a CL/F of 54.8 mL/min/kg.

For the compound `CC[C@H](Nc1ncnc(N)c1-c1ncnn1C)c1nc2cccc(Cl)c2c(=O)n1C1CC1` [Ex. 9, 2-((1S)-1-((6-amino-5-(1-methyl-1H-1,2,4-triazol-5-yl)pyrimidin-4-yl)amino)-propyl)-5-chloro-3-cyclopropylquinazolin-4(3H)-one], the CL/F worked out at 27.3 mL/min/kg.

As to `CC[C@H](Nc1ncnc(N)c1-c1ncnn1C)c1nc2cccc(Cl)c2c(=O)n1-c1ccccc1` [Ex. 10, 2-((1S)-1-((6-amino-5-(1-methyl-H-1,2,4-triazol-5-yl)pyrimidin-4-yl)amino)propyl)-5-chloro-3-phenylquinazolin-4(3H)-one], the apparent clearance CL/F was determined as 3.5 mL/min/kg.

As to `CC[C@H](Nc1ncnc(N)c1-c1ccccn1)c1nc2cccc(Cl)c2c(=O)n1C1CC1` [Ex. 11, (S)-2-(1-((6-amino-5-(pyridin-2-yl)pyrimidin-4-yl)amino)propyl)-5-chloro-3-cyclopropylquinazolin-4(3H)-one], the CL/F was found to be 4.83 mL/min/kg.

The compound `CC[C@H](Nc1ncnc(N)c1-c1noc(C)n1)c1nc2cccc(Cl)c2c(=O)n1C1CC1` [Ex. 12, (S)-2-(1-((6-amino-5-(5-methyl-1,2,4-oxadiazol-3-yl)pyrimidin-4-yl)amino)-propyl)-5-chloro-3-cyclopropylquinazolin-4(3H)-one] yielded a CL/F of 31.8 mL/min/kg.

`CC[C@H](Nc1ncnc(N)c1-c1noc(C)n1)c1nc2cccc(Cl)c2c(=O)n1-c1ccccc1` [Ex. 13, (S)-2-(1-((6-amino-5-(5-methyl-1,2,4-oxadiazol-3-yl)pyrimidin-4-yl)amino)-propyl)-5-chloro-3-phenylquinazolin-4(3H)-one] displayed a CL/F of 72.5 mL/min/kg.

Turning to `CC[C@H](Nc1ncnc(N)c1-c1ccon1)c1nc2cccc(Cl)c2c(=O)n1C1CC1` [Ex. 14, (S)-2-(1-((6-amino-5-(isoxazol-3-yl)pyrimidin-4-yl)amino)propyl)-5-chloro-3-cyclopropylquinazolin-4(3H)-one], the CL/F was 46.7 mL/min/kg.

`CC[C@H](Nc1ncnc(N)c1-c1noc(C)n1)c1nc2cccc(F)c2c(=O)n1C1CC1` [Ex. 16, (S)-2-(1-((6-amino-5-(5-methyl-1,2,4-oxadiazol-3-yl)pyrimidin-4-yl)amino)-propyl)-3-cyclopropyl-5-fluoroquinazolin-4(3H)-one] registered a CL/F of 68.7 mL/min/kg.

`CC[C@H](Nc1ncnc(N)c1-c1ncn(C)n1)c1nc2cccc(C)c2c(=O)n1C1CC1` [Ex. 18, (S)-2-(1-((6-amino-5-(1-methyl-1H-1,2,4-triazol-3-yl)pyrimidin-4-yl)amino)propyl)-3-cyclopropyl-5-methylquinazolin-4(3H)-one] registered an apparent clearance CL/F of 54.2 mL/min/kg.

Regarding `CC[C@@H](Nc1ncnc(N)c1-c1nc(C)no1)c1nc2cccc(Cl)c2c(=O)n1C1CC1` [Ex. 19, (R)-2-(1-((6-amino-5-(3-methyl-1,2,4-oxadiazol-5-yl)pyrimidin-4-yl)amino)propyl)-5-chloro-3-cyclopropylquinazolin-4(3H)-one], the apparent clearance CL/F turned out to be 127 mL/min/kg.

Compound `CC[C@H](Nc1ncnc(N)c1-c1nnc(C)o1)c1nc2cccc(C)c2c(=O)n1C1CC1` [Ex. 20] had a CL/F of 77.3 mL/min/kg.

Consider `CC[C@H](Nc1ncnc(N)c1-c1nc(C)no1)c1nc2cccc(C)c2c(=O)n1C1CC1` [Ex. 21, (S)-2-(1-((6-amino-5-(3-methyl-1,2,4-oxadiazol-5-yl)pyrimidin-4-yl)amino)-propyl)-3-cyclopropyl-5-methylquinazolin-4(3H)-one], for which the CL/F was 55.8 mL/min/kg.

On to `CC[C@H](Nc1ncnc(N)c1-c1nc(C)no1)c1nc2cccc(F)c2c(=O)n1C1CC1` [Ex. 23, (S)-2-(1-((6-amino-5-(3-methyl-1,2,4-oxadiazol-5-yl)pyrimidin-4-yl)amino)-propyl)-3-cyclopropyl-5-fluoroquinazolin-4(3H)-one], for which the CL/F is 71.3 mL/min/kg.

On to `CC[C@H](Nc1ncnc(N)c1-c1nnc(C)o1)c1nc2cccc(F)c2c(=O)n1C1CC1` [Ex. 25, (S)-2-(1-((6-amino-S-(5-methyl-1,3,4-oxadiazol-2-yl)pyrimidin-4-yl)amino)-propyl)-3-cyclopropyl-5-fluoroquinazolin-4(3H)-one], for which the CL/F came to 75.7 mL/min/kg.

The compound `CC[C@H](Nc1ncnc(N)c1-c1ncn(C)n1)c1nc2cccc(F)c2c(=O)n1C1CC1` [Ex. 26, (S)-2-(1-((6-amino-5-(1-methyl-1H-1,2,4-triazol-3-yl)pyrimidin-4-yl)amino)propyl)-3-cyclopropyl-5-fluoroquinazolin-4(3H)-one] returned a CL/F of 37 mL/min/kg. Compared with the last compound, the CL/F is about 2-fold lower.
